We go through 14 compounds from paper PMC6100703, “Rapid, simple, and clinically applicable high-performance liquid chromatography method for clinical determination of plasma colistin concentrations” (Journal of Pharmaceutical Health Care and Sciences, 2018).

For data set [1], the system named is MDRP with metallo-beta-lactamase (multidrug-resistant Pseudomonas aeruginosa). The data set is described as follows: Minimum inhibitory concentrations for the blood culture isolate of the patient. It counts as cell-based. The settings on record: for MIC: Pseudomonas aeruginosa, read-out: minimum inhibitory concentration.
Data set [2] in a line: Derivative stability (FMOC-Cl derivatives in eluted solution). The format is physicochemical. The settings on record: mean ± SD; for Refrigerated, recovery relative to freshly prepared samples: 4 °C; for Refrigerated, recovery relative to freshly prepared samples / Room temperature, recovery relative to freshly prepared samples / Frozen, recovery relative to freshly prepared samples: 7 d, HPLC-fluorescence peak area; for Refrigerated, recovery relative to freshly prepared samples / Frozen, recovery relative to freshly prepared samples: dark; for Room temperature, recovery relative to freshly prepared samples: 25 ± 1 °C, normal fluorescent light; for Freeze-thaw, recovery relative to freshly prepared samples: three cycles −23 °C to room temperature on consecutive days; for Frozen, recovery relative to freshly prepared samples: −23 °C, closed glass test tubes. The procedure:
The derivative stabilities of the samples containing 0.10 and 8.0 μg/mL of the standard colistin solution and the internal standard were evaluated at − 23 (frozen), 4 (refrigerated), and 25 ± 1 °C (room temperature) over 7 d. Freeze-thaw stability was assessed after three complete freeze-thaw cycles (− 23 °C to room temperature) on consecutive days. The stability of the target compounds was presented as the recovery (%) relative to the freshly prepared samples. The solutions at room temperature were exposed to normal fluorescent light, while the frozen and refrigerated samples were stored in a dark refrigerator and were exposed to light only during sampling. The storage temperatures were closely monitored throughout the study.

Data set [3] deals with multidrug-resistant Pseudomonas aeruginosa infection. The note with it: HD patient with MDRP infection; CMS 75 mg every 24 h after loading dose 250 mg, in combination with meropenem 1 g every 24 h; after a few days. The procedure: (§1) A patient (weight 52 kg, height 153.2 cm) with antineutrophilic cytoplasmic antibody-positive vasculitis undergoing renal replacement (intermittent haemodialysis, HD) was admitted to the hospital for rituximab and steroid pulse therapy. The HD patient’s disease had been complicated by Pneumocystis jiroveci pneumonia, herpes zoster, and MDRP infections. […] With the preliminary information of positive blood cultures, empiric treatment with cefepime (1 g every 12 h) was performed over 5 d. […] In addition, the following treatment parameters were employed: dialysate flow rate, 500 mL/min; blood flow rate, 100 mL/min; membrane surface area, 1.5 m^2; membrane type, APS-15MD New; HD frequency, twice per week; and session duration, 3 h. Samples were collected immediately prior to a dose or immediately prior to the next dose if CMS was not being administered every 24 h. The actual times of CMS administration and blood sampling were recorded. Samples were collected in potassium (K)2-ethylenediaminetetraacetic acid (EDTA)-containing tubes and centrifuged for 15 min within 2 h of collection. The resulting plasma sample was measured on the same day as blood collection. The HD clearance (CLHD) for colistin was calculated every hour during the start and end of the HD session as: […]

Data set [4] is described as follows: Plasma colistin concentration of a haemodialysis patient on CMS therapy (HPLC with fluorescence detection). The format is in vivo, human. The note with it: K2-EDTA plasma; for colistin concentration in plasma: HD patient. As to the method: HPLC analysis was performed at 25 ± 1 °C under isocratic conditions. All measurements were carried out at excitation and emission wavelengths of 260 nm and 315 nm, respectively, and the column temperature was maintained at 40 °C. The mobile phase consisted of a mixture of acetonitrile/tetrahydrofuran/distilled water (50:14:20, v/v/v) and was delivered at a flow rate of 1.6 mL/min. The sample injection volume was 50 μL.
Initially, the colistin and the internal standard (netilmicin sulfate, 20 μL) stock solutions were added to a portion of serum (200 μL). Following the addition of methanol (25 μL) and 10% trichloroacetic acid (25 μL) to the sample, it was vortexed for 10 s prior to centrifugation at 13,000 rpm for 5 min. The supernatant was then placed in an additional centrifuge tube and mixed with a 1 M sodium hydroxide solution (10 μL). The sample solution was loaded onto the solid-phase extraction (SPE) cartridge, which had been previously conditioned according to the following procedure.
SPE C18 cartridges (55 μm, 100 mg/mL; Phenomenex, Torrance, USA) were conditioned using acetone (1 mL) and methanol (1 mL) and equilibrated with 1% carbonate buffer (1 mL). The sample was then applied to the wet cartridge. After passing the sample through the cartridge, it was rinsed with methanol (1 mL) and carbonate buffer (1 mL), followed by a 100 mM FMOC-Cl solution (60 μL) and 90% methanol (3 mL). The derivatives were then eluted into a glass culture tube using acetone (500 μL). The eluted solution was mixed with a 0.6 M boric acid solution (100 μL) prior to vortex-mixing for 10 s, and then the obtained sample was injected into the HPLC system. All procedures were conducted at 25 ± 1 °C.
A patient (weight 52 kg, height 153.2 cm) with antineutrophilic cytoplasmic antibody-positive vasculitis undergoing renal replacement (intermittent haemodialysis, HD) was admitted to the hospital for rituximab and steroid pulse therapy. The HD patient’s disease had been complicated by Pneumocystis jiroveci pneumonia, herpes zoster, and MDRP infections. […] With the preliminary information of positive blood cultures, empiric treatment with cefepime (1 g every 12 h) was performed over 5 d. […] In addition, the following treatment parameters were employed: dialysate flow rate, 500 mL/min; blood flow rate, 100 mL/min; membrane surface area, 1.5 m^2; membrane type, APS-15MD New; HD frequency, twice per week; and session duration, 3 h. Samples were collected immediately prior to a dose or immediately prior to the next dose if CMS was not being administered every 24 h. The actual times of CMS administration and blood sampling were recorded. Samples were collected in potassium (K)2-ethylenediaminetetraacetic acid (EDTA)-containing tubes and centrifuged for 15 min within 2 h of collection. The resulting plasma sample was measured on the same day as blood collection. The HD clearance (CLHD) for colistin was calculated every hour during the start and end of the HD session as:
CMS was administered to the HD patient over 7 d (days 6–12), and six samples of blood were collected between days 7 and 12 of CMS therapy (Fig. 3). The initial sample was collected on day 7 approximately 20 h after the administration of CMS. All other samples were collected ~ 24 h after each dose. On the day of dialysis, the blood samples were collected at the start and end of the HD session.

The conditions of data set [5]: human, in vivo. As to the method:
as §1

Details of data set [6]: method as in 2 sources, ref Sorlí et al. [24] ||| ref Garonzik et al. [25]. The note with it: cited from earlier work.
The mark [7] stands for this setting: blood cultures from two peripheral vein sites of the HD patient, MDRP with metallo-beta-lactamase.
Where [8] appears, read: critically ill patients, including those on HD and continuous renal replacement, ref Garonzik et al. [25].
The mark [9] stands for this setting: patients suffering from nephrotoxicity, ref Sorlí et al. [24].

In brackets after ≈: the same amount, converted by molar mass. Like-named read-outs stand apart in the source and are kept apart here. Where only a bound is given, the exact number is not on record here.

In the case of `C[C@@H](O)[C@H]1C(=O)N2C(C(=O)O)=C(S[C@@H]3CN[C@H](C(=O)N(C)C)C3)[C@H](C)[C@H]12` [meropenem], in data set [1] (setting [7]), the MIC is greater than 8 µg/mL.
Take `CNC(C)C1CCC(N)C(OC2C(N)CC(N)C(OC3OCC(C)(O)C(NC)C3O)C2O)O1` (stereo not drawn) [gentamicin]: the MIC in data set [1] (setting [7]) is greater than 16 µg/mL.
In the case of `CC(C)(O/N=C(\C(=O)N[C@@H]1C(=O)N2C(C(=O)[O-])=C(C[n+]3ccccc3)CS[C@H]12)c1csc(N)n1)C(=O)O` [ceftazidime], the MIC in data set [1] (setting [7]) is greater than 32 µg/mL.
On to `CCN[C@@H]1C[C@H](N)[C@@H](O[C@H]2OC(CN)=CC[C@H]2N)[C@H](O)[C@H]1O[C@H]1OC[C@](C)(O)[C@H](NC)[C@H]1O` [Netilmicin, netilmicin], for which, in data set [2] (0.10 μg/mL), the “Refrigerated, recovery relative to freshly prepared samples” value is listed as 104 ± 2%; the “Room temperature, recovery relative to freshly prepared samples” value was 102 ± 3%; the “Freeze-thaw, recovery relative to freshly prepared samples” value turned out to be 98 ± 3%; the “Frozen, recovery relative to freshly prepared samples” value is 102 ± 3%. Moreover, in data set [2] (8.00 μg/mL), the “Refrigerated, recovery relative to freshly prepared samples” value amounted to 101 ± 2%; the “Room temperature, recovery relative to freshly prepared samples” value is reported as 103 ± 2%; the “Freeze-thaw, recovery relative to freshly prepared samples” value stood at 102 ± 2%; the “Frozen, recovery relative to freshly prepared samples” value was found to be 103 ± 3%.
Regarding `C[C@H]1[C@H](NC(=O)/C(=N\OC(C)(C)C(=O)O)c2csc(N)n2)C(=O)N1S(=O)(=O)O` [aztreonam], the MIC in data set [1] was 16 µg/mL (≈ 36.7 µM).
Consider colistin B, for which, in data set [2] (0.10 μg/mL), the “Refrigerated, recovery relative to freshly prepared samples” value came to 102 ± 2%; the “Room temperature, recovery relative to freshly prepared samples” value was 102 ± 2%; the “Freeze-thaw, recovery relative to freshly prepared samples” value is recorded as 102 ± 3%; the “Frozen, recovery relative to freshly prepared samples” value was found to be 105 ± 2%. In addition, in data set [2] (8.00 μg/mL), the “Refrigerated, recovery relative to freshly prepared samples” value is on record as 98 ± 3%; the “Room temperature, recovery relative to freshly prepared samples” value came out at 101 ± 2%; the “Freeze-thaw, recovery relative to freshly prepared samples” value amounted to 99 ± 3%; the “Frozen, recovery relative to freshly prepared samples” value is 100 ± 3%.
On to `CN(C)c1ccc(O)c2c1C[C@H]1C[C@H]3[C@H](N(C)C)C(O)=C(C(N)=O)C(=O)[C@@]3(O)C(O)=C1C2=O` [minocycline], for which the MIC in data set [1] (setting [7]) is greater than 8 µg/mL.
`CCN1CCN(C(=O)N[C@@H](C(=O)N[C@@H]2C(=O)N3[C@@H]2SC(C)(C)[C@@H]3C(=O)O)c2ccccc2)C(=O)C1=O` [piperacillin]: the MIC in data set [1] (setting [7]) amounted to 8 µg/mL (≈ 15.5 µM).
With colistin methanesulfonate [CMS], the “blood cultures after switching to CMS therapy” value in data set [3] is recorded as “negative”.
For the compound colistin A, in data set [2] (0.10 μg/mL), the “Refrigerated, recovery relative to freshly prepared samples” value is reported as 100 ± 1%; the “Room temperature, recovery relative to freshly prepared samples” value was determined as 102 ± 3%; the “Freeze-thaw, recovery relative to freshly prepared samples” value is listed as 97 ± 3%; the “Frozen, recovery relative to freshly prepared samples” value is recorded as 105 ± 3%. Further, in data set [2] (8.00 μg/mL), the “Refrigerated, recovery relative to freshly prepared samples” value came to 100 ± 3%; the “Room temperature, recovery relative to freshly prepared samples” value was found to be 99 ± 2%; the “Freeze-thaw, recovery relative to freshly prepared samples” value was determined as 100 ± 2%; the “Frozen, recovery relative to freshly prepared samples” value is recorded as 102 ± 2%.
On to `CO/N=C(\C(=O)N[C@@H]1C(=O)N2C(C(=O)[O-])=C(C[N+]3(C)CCCC3)CS[C@H]12)c1csc(N)n1` [cefepime], for which the MIC in data set [1] is greater than 32 µg/mL.
Regarding colistin, in data set [4] (day 7, approximately 20 h after administration of CMS (loading dose 250 mg)), the “colistin concentration in plasma” value amounted to 7.85 µg/mL. The “colistin concentration in plasma” value in data set [4] (day 8, ~24 h after dose, CMS 75 mg every 24 h) is 5.95 µg/mL. For the same compound, the “colistin concentration in plasma” value in data set [4] (day 9, ~24 h after dose, CMS 75 mg every 24 h) amounted to 3.91 µg/mL. In addition, the “colistin concentration in plasma” value in data set [4] (day 12, ~24 h after dose, CMS 75 mg every 24 h) was 3.70 µg/mL. In addition, the “colistin concentration in plasma at the end of the HD session” value in data set [4] (day 10, end of 3 h HD session) came to 2.75 µg/mL. In addition, in data set [4] (day 10, start of 3 h HD session), the “colistin concentration in plasma at the start of the HD session” value is 4.57 µg/mL. Also, the “HD clearance (CLHD)” value in data set [5] was determined as 30.7 mL/min. The same compound gave a minimum inhibitory concentration in data set [1] (setting [7]) of no more than 1 µg/mL. In data set [6] (setting [8]), the “average steady-state concentration of colistin, median” value is 2.36 µg/mL and the “average steady-state concentration of colistin, range” value was 0.48 to 9.38 µg/mL. Further, in data set [6] (setting [9]), the “minimal concentration of colistin, median” value was 1.18 µg/mL; the “minimal concentration of colistin, range” value is 0.16 to 5.99 µg/mL; the “peak concentration of colistin, median” value was 1.81 µg/mL; the “peak concentration of colistin, range” value was 0.16 to 6.12 µg/mL.
On to `O=C(O)c1cn(C2CC2)c2cc(N3CCNCC3)c(F)cc2c1=O` [ciprofloxacin], for which the MIC in data set [1] is greater than 4 µg/mL.
For the compound `NCC[C@H](O)C(=O)N[C@@H]1C[C@H](N)[C@@H](O[C@H]2O[C@H](CN)[C@@H](O)[C@H](O)[C@H]2O)[C@H](O)[C@H]1O[C@H]1O[C@H](CO)[C@@H](O)[C@H](N)[C@H]1O` [amikacin], in data set [1] (setting [7]), the MIC was greater than 16 µg/mL.
